The source of these data is patent US8461328B2, “Tricyclic heterocyclic compounds, compositions and methods of use thereof” (Genentech, Inc., priority 2010, dated 2013).

Holding throughout (type): biochemical
One assay has as its target T1, JAK2 (Homo sapiens, UniProt O60674).
T1 construct: made in house; host or cells: SF9 insect cells (baculovirus)
Briefly: JAK2 inhibition (Table 4).

A further assay concerns the target T2, JAK3 (Homo sapiens, UniProt P52333).
T2 construct: made in house; host or cells: SF9 insect cells (baculovirus)
Briefly: JAK3 inhibition (Table 4). The settings on record: read-out: JAK3 Ki.

The target in a further assay is T3, TYK2 (Homo sapiens, UniProt P29597).
T3 construct: made in house; host or cells: SF9 insect cells (baculovirus)
T3 sequence (P29597 873-1187): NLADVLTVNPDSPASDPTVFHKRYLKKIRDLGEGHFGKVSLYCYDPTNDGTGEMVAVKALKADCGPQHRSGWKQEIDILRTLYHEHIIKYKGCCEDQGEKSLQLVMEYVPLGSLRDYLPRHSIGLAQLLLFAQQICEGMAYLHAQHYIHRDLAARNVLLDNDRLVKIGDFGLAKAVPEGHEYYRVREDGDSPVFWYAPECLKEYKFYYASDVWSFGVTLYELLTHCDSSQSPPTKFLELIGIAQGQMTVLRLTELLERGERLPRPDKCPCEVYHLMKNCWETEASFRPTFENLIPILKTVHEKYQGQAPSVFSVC
Kind of assay: TYK2 inhibition (Table 4).

Read-outs that look alike come from different tables or passages of the source.

T1 sequence (O60674 812-1132): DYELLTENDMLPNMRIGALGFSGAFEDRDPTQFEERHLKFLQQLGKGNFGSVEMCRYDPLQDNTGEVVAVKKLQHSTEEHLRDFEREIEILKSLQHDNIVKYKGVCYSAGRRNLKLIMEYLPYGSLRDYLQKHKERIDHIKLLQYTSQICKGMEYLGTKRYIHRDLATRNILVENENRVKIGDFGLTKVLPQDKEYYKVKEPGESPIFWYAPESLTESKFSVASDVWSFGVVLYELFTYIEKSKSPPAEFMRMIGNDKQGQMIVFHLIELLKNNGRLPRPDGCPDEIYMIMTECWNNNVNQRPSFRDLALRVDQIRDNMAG
T2 sequence (P52333 783-1124): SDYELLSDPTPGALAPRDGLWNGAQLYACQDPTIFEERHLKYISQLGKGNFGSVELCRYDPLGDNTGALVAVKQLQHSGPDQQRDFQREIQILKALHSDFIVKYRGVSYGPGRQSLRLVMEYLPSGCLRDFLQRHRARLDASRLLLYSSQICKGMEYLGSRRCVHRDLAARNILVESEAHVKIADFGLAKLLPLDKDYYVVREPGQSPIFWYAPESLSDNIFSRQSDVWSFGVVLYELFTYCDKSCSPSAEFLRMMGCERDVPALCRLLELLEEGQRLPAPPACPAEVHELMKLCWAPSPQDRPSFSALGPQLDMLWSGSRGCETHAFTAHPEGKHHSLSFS

Turning to `C[C@@H](O)c1nc2cnc3[nH]ccc3c2n1C1CCCCC1` [Example 671, (R)-1-(1-Cyclohexyl-1,6-dihydro-1,2,3,5,6-tetraaza-as-indacen-2-yl)-ethanol], the Ki on JAK2 (read-out: JAK2 Ki) stood at 18.1 nM; at JAK3, 22.4 nM; at TYK2, 2.47 nM.
Taken in the same sequence, the figures for `C[C@@H](O)c1nc2cnc3[nH]ccc3c2n1C1CCCCC1` [Example 672, (R)-1-(1-Cyclohexyl-1,6-dihydro-1,2,3,5,6-tetraaza-as-indacen-2-yl)-ethanol-d11] were 19.8 nM, 17.2 nM and 3.01 nM.
Regarding `CS(=O)(=O)NCc1nc2cnc3[nH]ccc3c2n1C1CCN(CC(F)(F)F)CC1` [Example 692, N-{1-[1-(2,2,2-Trifluoro-ethyl)-piperidin-4-yl]-1,6-dihydro-1,2,3,5,6-tetraaza-as-indacen-2-ylmethyl}-methanesulfonamide], the Ki came out at 46.6 nM at JAK2 (read-out: JAK2 Ki), 68.4 nM on JAK3 and 118 nM on TYK2.
`CC(C)(CF)N1CCC(n2c(CNS(C)(=O)=O)nc3cnc4[nH]ccc4c32)CC1` [Example 693, N-{1-[1-(2-Fluoro-1,1-dimethyl-ethyl)-piperidin-4-yl]-1,6-dihydro-1,2,3,5,6-tetraaza-as-indacen-2-ylmethyl}-methanesulfonamide]: the Ki on JAK2 (read-out: JAK2 Ki) stood at 72.1 nM; at JAK3 it was 303 nM; on TYK2, 332 nM.
Taken in the same sequence, the figures for `CC1(n2cnc3cnc4[nH]ccc4c32)CCN(CC(F)(F)F)CC1` [Example 752, 1-[4-Methyl-1-(2,2,2-trifluoro-ethyl)-piperidin-4-yl]-1,6-dihydro-1,3,5,6-tetraaza-as-indacene] were 97.2 nM, 240 nM and 264 nM.
`c1cc2c(ncc3ncn(C4CCC(N5CCOCC5)CC4)c32)[nH]1` (stereo not drawn) [Example 775, 1-(4-Morpholin-4-yl-cyclohexyl)-1,6-dihydro-1,3,5,6-tetraaza-as-indacene]: the Ki was 238 nM on JAK2 (read-out: JAK2 Ki), 910 nM on JAK3 and 843 nM on TYK2.
Taken in the same sequence, the figures for `CS(=O)(=O)NCc1nc2cnc3[nH]ccc3c2n1[C@H]1CCCOC1` [Example 855, (S)—N-[1-(Tetrahydro-pyran-3-yl)-1,6-dihydro-1,3,5,6-tetraaza-as-indacen-2-ylmethyl]-methanesulfonamide] were 117 nM, 493 nM and 112 nM.
Taken in the same sequence, the figures for `CS(=O)(=O)NCc1nc2cnc3[nH]ccc3c2n1[C@@H]1CCCOC1` [Example 866, (R)—N-[1-(Tetrahydro-pyran-3-yl)-1,6-dihydro-1,3,5,6-tetraaza-as-indacen-2-ylmethyl]-methanesulfonamide] were 604 nM, 1110 nM and 1060 nM.
Taken in the same sequence, the figures for `CS(=O)(=O)NCc1nc2cnc3[nH]ccc3c2n1C1CCCC1` [Example 874, N-(1-Cyclopentyl-1,6-dihydro-1,3,5,6-tetraaza-as-indacen-2-ylmethyl)-methanesulfonamide] were 162 nM, 242 nM and 114 nM.
Take `CS(=O)(=O)NCc1nc2cnc3[nH]ccc3c2n1C1CC2CCC1C2` (stereo not drawn) [Example 894, N-(1-Bicyclo[2.2.1]hept-2-yl-1,6-dihydro-1,3,5,6-tetraaza-as-indacen-2-ylmethyl)-methanesulfonamide]: the Ki at JAK2 (JAK2 Ki) was 6.18 nM; at JAK3 it was 37.4 nM; on TYK2, 6.46 nM.
In the case of `CS(=O)(=O)NCc1nc2cnc3[nH]ccc3c2n1C1CCN(CCF)CC1` [Example 913, N-{1-[1-(2-Fluoro-ethyl)-piperidin-4-yl]-1,6-dihydro-1,3,5,6-tetraaza-as-indacen-2-ylmethyl}-methanesulfonamide], the Ki on JAK2 (read-out: JAK2 Ki) was found to be 54.7 nM; at JAK3, 61.4 nM; on TYK2, 116 nM.

As a reminder, the Ki is the equilibrium dissociation constant of an inhibitor or competing ligand from its target.
